Assay results reported in PMC10667816, “A Cell‐Penetrant Peptide Disrupting the Transcription Factor CP2c Complexes Induces Cancer‐Specific Synthetic Lethality” (Advanced Science, 2023).
*1 amine or outer side, *2 acyl side, *3 side chain or, on linkers, in order; H or OH if unused. Where a SMILES comes first, the peptide text is derived from it. Side-chain parts run from the residue outwards. The star is where a group is joined. γGlu = O=C(O)[C@H](CCC(=O)[*:2])N[*:1]; Palmitoyl = CCCCCCCCCCCCCCCC(=O)*

Key:
[1] = tested on: diethylnitrosamine (DEN)‐induced orthotopic liver cancer; assay: DEN‐induced orthotopic liver cancer mouse model; format: in vivo; conditions: administered at five‐day intervals, C57BL/6 mice
[2] = tested on: over 450 human kinases or disease‐relevant mutant variants; assay: KINOMEscan screening; format: binding
[3] = tested on: cisplatin‐resistant cancer cells; assay: Growth inhibition in cisplatin‐resistant cancer cells; format: cell-based, human; conditions: cisplatin‐resistant variants of Hep3B, HCT116, MDA‐MB‐231
Method: Information of the cell lines is listed in Table S1 (Supporting Information), including their origin and culture conditions. All cell lines were cultured at 37 °C, 5% CO2 incubator. MDA‐MB‐231 (LM1), HepG2, Hep3B, and HCT116 cell lines were authenticated with short tandem repeat markers based on ATCC information. All cell lines tested negative for mycoplasma contamination. Transient downregulation of the gene of interest was conducted by siRNA transfection using Lipofectamine 2000 (Thermo Fisher, 11668019) according to the manufacturer's instructions. Information about siRNAs is provided in Table S2 (Supporting Information). […] For erythroid terminal differentiation experiments, differentiation was assessed by hemoglobin staining using a 0.2% (w/v) tetramethylbenzidine solution (Sigma–Aldrich, T0440) in 0.6% hydrogen peroxide, 3% acetic acid for 10 min in dark condition. Benzidine‐positive or negative cell numbers were counted under the inverted microscope BX50 (Olympus) at 200 × magnification. […] After each synchronization, cells were fixed at 4‐h intervals for 24 h with ACP52C treatment, and the cell cycle was analyzed by Propidium Iodide (PI) staining or intracellular protein was analyzed by immunofluorescence. […] This development period was repeated four times for one round, after which GI50 concentrations were re‐assessed in each resistant cell line. […]

[4] = tested on: ACP52C‐resistant cancer cell lines; assay: Growth inhibition of resistant cells with CASP2 inhibition; format: cell-based, human; conditions: combined with CASP2 inhibiting peptide Ac‐VDVAD‐CHO (10 µM)
Method: Various cell lines were treated with peptides, either alone or in combination with the CASP2 inhibitor (Ac‐VDVAD‐CHO; Enzo ALX‐260‐058‐M001) at various concentrations for 4 days. Cell viability was assessed on day 2 or day 4 using MTT (3‐(4,5‐dimethylthiazol‐2‐yl)‐2,5‐diphenyltetrazolium bromide; Sigma–Aldrich, M2128) assay. In brief, fresh cells were seeded in flat‐bottomed 96‐well tissue culture plates at appropriate concentrations for each cell line per well using complete culture medium. The cells were incubated in 100 µL of culture medium containing various concentration of chemicals or peptides at 37 °C for 0 to 96 h. A solution of MTT (5 mg mL^−1) was added to the culture medium, and the cells were further incubated at 37 °C for an additional 3 h. The MTT medium was then removed, and the formazan crystals were dissolved in DMSO (100 µL per well). The formazan concentration was measured spectrophotometrically at 490 nm using a Varioskan Flash Spectral Scanning Multimode Reader (Thermo Scientific Korea). Nonlinear regression curves for growth inhibition and GI50 values for each cell line were estimated from independent replicates using the Prism (version 6) software (GraphPad Software Inc.)

[5] = In vivo metabolic stability test by live imaging; design: species or system mouse; conditions: Hep3B CDX Balb/c nude mice, intravenous Cy5‐ACP52C 17 mg kg^−1, live imaging fluorescence over 24 h
Description: (1 picture or pasted object on this page, not shown here)
Scale bar represents 10 μm.

Structure (SMILES): CCCCCCCCCCCCCCCC(=O)N[C@@H](CCC(=O)NCCCC[C@H](NC(=O)CNC(=O)CNC(=O)[C@@H]1CCCN1C(=O)[C@H](CCCNC(=N)N)NC(=O)[C@H](CCC(N)=O)NC(=O)[C@@H]1CCCN1C(=O)[C@H](Cc1ccc(O)cc1)NC(=O)[C@H](CC(N)=O)NC(C)=O)C(=O)NCC(=O)NCC(=O)N[C@@H](CS)C(=O)N[C@@H](CCCNC(=N)N)C(=O)NCC(=O)N[C@@H](CC(=O)O)C(=O)N[C@@H](CCCCN)C(=O)NCC(=O)N1CCC[C@H]1C(=O)N[C@@H](CC(=O)O)C(=O)N[C@@H](CS)C(N)=O)C(=O)O [ACP52CGK] (Ac-NYPQRPGGK([γGlu-Palmitoyl])GGCRGDKGPDC-NH2)
- anti‐tumor efficacy [1]: remarkable anti‐tumor efficacy

Structure (SMILES): CC(=O)N[C@@H](CC(N)=O)C(=O)N[C@@H](Cc1ccc(O)cc1)C(=O)N1CCC[C@H]1C(=O)N[C@@H](CCC(N)=O)C(=O)N[C@@H](CCCNC(=N)N)C(=O)N1CCC[C@H]1C(=O)N[C@@H](CS)C(=O)N[C@@H](CCCNC(=N)N)C(=O)NCC(=O)N[C@@H](CC(=O)O)C(=O)N[C@@H](CCCCN)C(=O)NCC(=O)N1CCC[C@H]1C(=O)N[C@@H](CC(=O)O)C(=O)N[C@@H](CS)C(N)=O [ACP52C] (Ac-NYPQRPCRGDKGPDC-NH2)
- interactions with kinases [2]: did not exhibit interactions
- anticancer activity in cisplatin‐resistant cells [3]: effectiveness in targeting cisplatin‐resistant cancer cells
- sensitization by combined treatment [4]: sensitized ACP52C‐resistant cancer cell lines
- systemic metabolic stability in vivo (RL50, time for 50% retention of fluorescence) [5]: ≈ 7.8 h
